This is an account of results in US20220184020A1, “Polyphenols as Modulators of Platelet Function” (Northeastern University, priority 2019, published 2022).

Test [1] concerns platelets. Kind of test: Platelet alpha granule secretion (P-selectin surface expression). The conditions noted are these: in response to U46619; RA pre-treatment 1 hour. The class given is cell-based, human. The protocol:
To validate the predictive power of the developed framework, direct experimental evidence of the predicted mechanistic role of Rosmarinic acid (RA) in VD was sought. […] Therefore, whether RA influenced platelet activation in vitro was evaluated. As platelets can be stimulated through different activation pathways, RA effects can, in principle, occur in any of them. To test these different possibilities, platelets were pretreated with RA and then activated with: 1) glycoprotein VI by collagen or collagen-related peptide (Collagen/CRPXL); 2) protease-activated receptors-1,4 by thrombin receptor activator peptide-6 (TRAP-6); 3) prostanoid thromboxane receptor by the thromboxane A2 analogue (U46619); and 4) P2Y1/12 receptor stimulation by adenosine diphosphate (ADP). When the network distance between each stimulant receptor and the RA-VD-platelet module (FIG. 11A) was compared, it was observed that the receptors for Collagen/CRPXL, TRAP-6, and U46619 are closer than the random expectation, while the receptor for ADP is more distant (FIG. 11B). It is expected that platelets would be most affected by RA when treated with stimulants whose receptors are most proximal to the RA-VD-platelet module, i.e. Collagen/CRPXL, TRAP-6, and U46619. […] Percent-positive cells were determined by gating on fluorescence intensity compared to unstimulated samples.

In test [2] the test system is platelets. Kind of test: Platelet functions after ADP stimulation (control, distant receptor). The class given is cell-based, human. As to conditions: stimulant whose receptor is distant from the RA-VD-module (ADP). How it is done: To validate the predictive power of the developed framework, direct experimental evidence of the predicted mechanistic role of Rosmarinic acid (RA) in VD was sought. […] Therefore, whether RA influenced platelet activation in vitro was evaluated. As platelets can be stimulated through different activation pathways, RA effects can, in principle, occur in any of them. To test these different possibilities, platelets were pretreated with RA and then activated with: 1) glycoprotein VI by collagen or collagen-related peptide (Collagen/CRPXL); 2) protease-activated receptors-1,4 by thrombin receptor activator peptide-6 (TRAP-6); 3) prostanoid thromboxane receptor by the thromboxane A2 analogue (U46619); and 4) P2Y1/12 receptor stimulation by adenosine diphosphate (ADP). […] Platelet aggregation was measured by turbidimetric aggregometry. […] Platelet aggregation was monitored for 6 minutes at 37° C. with a stir speed of 1000 rpm and the maximum extend of aggregation recorded using AGGRO/LINK®8 software. In some cases, dense granule release was simultaneously recorded by supplementing samples with Chrono-Lume® (Chrono-Log®, 395) according to the manufacturer's instructions. […] Percent-positive cells were determined by gating on fluorescence intensity compared to unstimulated samples.

The conditions of test [3]: rat models of ischemia/reperfusion injury; cited from earlier work.
Test [4] has as its system MCF7 cell line. As to conditions: MCF7 after treatment with RA; versus all other genes; cited from earlier work.

`O=C(/C=C/c1ccc(O)c(O)c1)O[C@H](Cc1ccc(O)c(O)c1)C(=O)O` [rosmarinic acid]: the alpha granule secretion result in test [1] is recorded as “dampened”. The platelet functions entry in test [2] is recorded as “did not affect”. The cardiac function entry in test [3] is recorded as “restore cardiac function”. In addition, the “perturbation scores for genes directly regulated by NFE2L2” value in test [4] was “higher perturbation scores”.
